Test results reported in article PMC4506051, “Pharmacokinetic Profiles of Active Ingredients and Its Metabolites Derived from Rikkunshito, a Ghrelin Enhancer, in Healthy Japanese Volunteers: A Cross-Over, Randomized Study” (PLoS ONE, 2015).

Experiments:
ghrelin secretion = conditions: cited from earlier work
[1] = Exploratory trial: ingredients in β-glucuronidase (enzyme)-treated plasma; type: in vivo, human; conditions: in vivo
Method: (§1) In the first exploratory trial, 20-mL blood samples were collected from the cutaneous vein in the subjects’ forearm via a blood sampling tube that contained heparin at 0 (preadministration), 0.5, 1, 2, 4, and 8 h after a single oral administration of rikkunshito (Lot E24652). The dose of rikkunshito used in this trial was 7.5 g/day, which is the clinical daily dose, to widely explore rikkunshito-derived ingredients that enter the blood. Along with plasma, urine samples were collected at three points: between dinner and bedtime (preadministration), between 0 and 4 h after administration, and between 4 and 8 h after administration. The blood was immediately centrifuged at 1700 ×g for 10 min to obtain plasma. Plasma and urine fractions were stored at −80°C or lower until analysis.
(§2) For quantification of 30 ingredients other than atractylodin and synephrine, 25 µL of standard solution or methanol was added to 500 µL plasma or urine samples followed by mixing. Atractylenolide III or digoxin (IS) solution (50 μL) was added to the solutions followed by mixing. For urine, 400 µL of blank plasma was added to the solutions. Ammonium acetate solution (100 mM, 100 or 400 µL) was added to the solutions followed by mixing. For enzymatic treatment, plasma and urine samples were incubated with β-glucuronidase (100 units in 100 mM ammonium acetate) for 2 h at 37°C. A solid-phase cartridge (OASIS HLB, 30 mg/1cc, Waters) was conditioned with methanol and 10 mM ammonium acetate solution, and the samples were loaded onto the cartridge. The cartridge was washed water : methanol (9:1, v/v), and 1.5 mL of methanol and 30 µL of propylene glycol were added to the cartridge to elute the analytes. The mixtures were dried at 25°C under a stream of nitrogen gas. Furthermore, 100 μL of 10 mM ammonium acetate : methanol (8:2, v/v) was added to the dried samples followed by mixing and sonication. The solutions were filtered (0.22 µm) and followed by injection into the LC–MS/MS system. […] Those analytical conditions are summarized in S2 Table and S3 Table.

5-HT2BR = system: 5-HT2BR; parameters: method as in PMID 18439428; conditions: cited from earlier work
[2] = Stability of ingredients in gastric pH solution (pH 1.2, 37°C); type: physicochemical
Method: Rikkunshito gradually dissolved in acidic solution (pH 1.2) at 37°C, and the concentration of atractylodin after adding 0.25, 0.5, 1, and 2 h was measured by gas chromatography–mass spectrometry.

[3] = Exploratory trial: plasma concentration of rikkunshito ingredients after single oral rikkunshito 7.5 g; type: in vivo; conditions: for Plasma concentration, 0 h: 0 h (preadministration), single oral rikkunshito 7.5 g; for Plasma concentration, 0 h / Plasma concentration, 0.5 h / Plasma concentration, 1 h / Plasma concentration, 2 h / Plasma concentration, 4 h / Plasma concentration, 8 h: mean ± S.D., n = 4; for Plasma concentration, 0.5 h: 0.5 h after single oral rikkunshito 7.5 g; for Plasma concentration, 1 h: 1 h after single oral rikkunshito 7.5 g; for Plasma concentration, 2 h: 2 h after single oral rikkunshito 7.5 g; for Plasma concentration, 4 h: 4 h after single oral rikkunshito 7.5 g; for Plasma concentration, 8 h: 8 h after single oral rikkunshito 7.5 g
Summary of the method: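 Plasma and urine levels were measured by LC–MS/MS after one 7.5 g oral dose of rikkunshito. Samples were collected before dosing and at 0.5–8 h for blood, or in 0–4 h and 4–8 h fractions for urine. Synephrine was determined after protein-removal plate cleanup; the other ingredients after β-glucuronidase deconjugation (2 h, 37°C) and SPE.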

[4] = Exploratory trial: amount of rikkunshito ingredients in urine; type: in vivo, human
Summary of the method: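 LC–MS/MS measurement of rikkunshito constituents in urine fractions (pre-dose, 0–4 h, 4–8 h) following one 7.5 g oral dose. Other constituents: enzymatic deglucuronidation at 37 °C for 2 h, then SPE cleanup with atractylenolide III or digoxin as IS; synephrine: erythromycin IS, Ostro plate.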

[5] = Exploratory trial: ingredients in β-glucuronidase (enzyme)-treated urine; type: in vivo, human; conditions: human, in vivo
Method: as §1, §2

5-HT2CR = system: 5-HT2CR; parameters: method as in PMID 18439428; conditions: cited from earlier work
[6] = Formation of ingredients derived from rikkunshito in formulation, blood, and urine (S11 Table summary); conditions: after rikkunshito administration, per ingredient in the formulation; for Formation of ingredients: form found in Urine: BQL = below the quantification limit
[7] = of the ingredient in the formulation; summary table, reference not given; cited from earlier work
[8] = system: cisplatin-induced anorexia model; conditions: cited from earlier work
[9] = oral administration at a dose of 4.0 mg/kg

Compound | Stability in gastric pH solution, Quantitative value ([2]; 0.5 h, pH 1.2) | Stability in gastric pH solution, Quantitative value ([2]; 1 h, pH 1.2) | Stability in gastric pH solution, Quantitative value ([2]; 2 h, pH 1.2) | Amount in urine, Pre ([4]; human, in vivo) | Amount in urine, 0–4 h ([4]; human, in vivo, po) | Formation of ingredients: form found in Blood [6] | Formation of ingredients: form found in Urine [6] | Metabolite by enterobacterium [7] | Plasma concentration, 0 h [3] | Plasma concentration, 0.5 h [3] | Plasma concentration, 1 h [3] | Plasma concentration, 2 h [3] | Plasma concentration, 4 h [3] | Plasma concentration, 8 h [3] | Amount in urine, 4–8 h ([4]; human, in vivo, po) | further results
COc1ccc([C@@H]2CC(=O)c3c(O)cc(O)cc3O2)cc1O [Hesperetin] | 4.38 ng/mL | 4.36 ng/mL | 3.90 ng/mL | 213 ± 390 ng | 462 ± 418 ng |  |  |  |  |  |  |  |  |  |  | Known pharmacology activities: ghrelin secretion (ghrelin secretion): Ghrelin secretion promoting activity [14, 15]; Cmax ([1]; human): 0.799 ng/mL; concentration at 2 h ([1]; human): 0.227 ± 0.264 ng/mL; concentration at 4 h ([1]; human): 0.799 ± 0.408 ng/mL; concentration at 8 h ([1]; human): 0.307 ± 0.289 ng/mL; Plasma concentration in enzyme-treated plasma, 0 h [1]: BQL; Plasma concentration in enzyme-treated plasma, 0.5 h [1]: BQL; Plasma concentration in enzyme-treated plasma, 1 h [1]: BQL; 5-HT2BR inhibitory/antagonistic activity (5-HT2BR): inhibit; Plasma concentration at all time points ([3]; 0–8 h, rikkunshito 7.5 g, untreated plasma, BQL = below the quantification limit): BQL; Amount in enzyme-treated urine, 0–4 h [5]: 7130 ± 9290 ng; Amount in enzyme-treated urine, 4–8 h [5]: 56750 ± 37530 ng; Amount in enzyme-treated urine, Pre [5]: 4290 ± 7690 ng; Increase of urine concentration after β-glucuronidase treatment compared with before treatment [5]: more than 10 fold; 5-HT2CR inhibitory activity (5-HT2CR): inhibit
COc1ccc([C@@H]2CC(=O)c3c(O)cc(O[C@@H]4O[C@H](CO[C@@H]5O[C@@H](C)[C@H](O)[C@@H](O)[C@H]5O)[C@@H](O)[C@H](O)[C@H]4O)cc3O2)cc1O [Hesperidin] |  |  |  |  |  | Conjugate metabolites of hesperetin | Hesperidin Hesperetin Conjugate metabolites of hesperetin | Hesperetin |  |  |  |  |  |  |  | Stability in gastric pH solution, Quantitative value ([2]; rikkunshito in acidic solution (pH 1.2) at 37°C, 0.5 h): 2860 ng/mL; Stability in gastric pH solution, Quantitative value ([2]; rikkunshito in acidic solution (pH 1.2) at 37°C, 1 h): 3130 ng/mL; Stability in gastric pH solution, Quantitative value ([2]; rikkunshito in acidic solution (pH 1.2) at 37°C, 2 h): 2570 ng/mL; Appetite following cisplatin administration [8, 9]: improves decreased appetite; Plasma ghrelin concentration following cisplatin administration [8, 9]: inhibits a decrease in plasma ghrelin concentration; Acylated ghrelin level in blood ([8]; oral administration, cisplatin-induced anorexia model): suppressed the decrease of the acylated ghrelin level in blood in a concentration-dependent manner; Amount in urine, 0–4 h ([4]; 0–4 h after single oral rikkunshito 7.5 g, mean ± S.D., n = 4): 184 ± 60.5 ng; Amount in urine, 4–8 h ([4]; 4–8 h after single oral rikkunshito 7.5 g, mean ± S.D., n = 4): 68.6 ± 47.9 ng; Amount in urine, Pre ([4]; preadministration (between dinner and bedtime), mean ± S.D., n = 4): 28.9 ± 57.8 ng
O=C1C[C@@H](c2ccc(O[C@@H]3O[C@H](CO)[C@@H](O)[C@H](O)[C@H]3O)cc2)Oc2cc(O)ccc21 [Liquiritin] | 1670 ng/mL | 1830 ng/mL | 1720 ng/mL | 15.7 ± 19.0 ng |  | Liquiritin Liquiritigenin^c | Liquiritin Liquiritigenin^c | Liquiritigenin^b | BQL | 1.02 ± 0.131 ng/mL | 0.841 ± 0.0943 ng/mL | 0.403 ± 0.0913 ng/mL | 0.114 ± 0.0392 ng/mL | BQL | 1900 ± 945 ng | 
C[C@@H]1O[C@@H](O[C@H]2[C@H](Oc3cc(O)c4c(c3)O[C@H](c3ccc(O)cc3)CC4=O)O[C@H](CO)[C@@H](O)[C@@H]2O)[C@H](O)[C@H](O)[C@H]1O [Naringin] | 959 ng/mL | 1060 ng/mL | 986 ng/mL | 70.7 ± 69.2 ng | 1030 ± 313 ng | Naringin Naringenin Conjugate metabolites of naringenin^a | Naringin Naringenin | Naringenin (portion) | BQL | BQL | 0.059 ± 0.0684 ng/mL | BQL | BQL | BQL | 598 ± 329 ng | 
